The first assay concerns the target T1, human vasopressin V2 receptor subtype (Homo sapiens, UniProt P30518).
T1 construct: host or cells: CHO cells, pZeoSV vector
Description: Vasopressin binding in CHO cell membranes expressing human vasopressin V2 subtype receptors ([3H]arginine vasopressin radioligand binding). Conditions: @ 100 nM. The text has this: Vasopressin Binding in Chinese Hamster Ovary Cell Membranes Expressing Human Vasopressin V2 Subtype Receptors
Chinese Hamster Ovary (CHO) cells stably transfected with the human V2 subtype receptors were obtained from M. Thibonnier, Case Western Reserve University School of Medicine, Cleveland, Ohio.
A. Passaging and Amplification of Cells
CHO cells transfected with the human vasopressin V2 subtype receptors obtained from M. Thibonnier (pZeoSV vector) are allowed to grow to confluency (approx. >90%) in T-150 flasks under sterile conditions, in a cell culture medium ofF-12 Nutrient Mixture (HAM) with L-glutamine (Gibco Cat. #11765-054) containing 15 mM HEPES (Gibco Cat. #15630-080), 1% antibiotic/antimycotic (add 5 mL 100×, Gibco Cat. #15240-062 per 500 mL F-12), 250 μg/mL Zeocin (add 1.25 mL of 100 mg/mL Invitrogen R-250-01 per 500 mL F-1 2) and 10% Fetal Bovine Serum (Qualified, heat inactivated, Gibco Cat. #16140-063). The medium is removed by aspiration and the cells washed with 10 mL of Hank's Balanced Salt solution (Gibco Cat. #14175-095). The salt solution is removed by aspiration and the cells trypsinized with 5 mL of trypsin-EDTA (0.05% trypsin, 0.53 mM EDTA-4Na, Gibco Cat. #25300-070) for 1 min. The trypsin is removed by aspiration and the cells dislodged by tapping. Cell Culture medium (e.g. 30 mL for 1:30 split) is immediately added and mixed well to inactivate trypsin. 1 mL of detached cells is added to new culture flasks containing fresh Cell Culture medium (e.g. into 25 mL per T-150 flask), and mixed gently. The cells are incubated at 37° C. in 5% CO2. The medium is changed at 3 to 4 day interval (or as appropriate). The cells grow to confluency (approx. >75%-95%) within 7-8 days. All steps are done under sterile conditions.
The cells are washed twice gently with Hank's Balanced Salt solution (e.g. use 10 mL per T-150 flask). The excess solution is removed and the cells bathed for 15-30 min. in an enzyme-free Cell Dissociation Buffer (e.g. use 8 mL Hank's Based, Gibco Cat. # 13150-016 per T-150 flask) until cells are loosened. The contents are transferred to centrifuge tubes (50 mL) kept in ice bath. All subsequent steps are done at 4° C. The tubes are centrifuged at 300×g for 15 min (1380 rpm on SORVAL, Model RT6000D, using the rotor for 50 mL tubes). The supernatant is discarded and the cells suspended in homogenizing buffer (10 mM Tris-HCl containing 0.25 M sucrose and 1 mM EDTA, pH 7.4) ensuring that the volume of the buffer is about ten times the volume of the cell pellet. The cells are pooled into a centrifuge tube (50 mL) and homogenized with Polytron at setting 6 for 10 sec. The homogenate is transferred into a Potter-Elvjehm homogenizer and homogenized with 3 strokes. The homogenate is centrifuged at 1500×g for 60 min at 4° C. (3100 rpm using SORVAL, model RT6000D, using the rotor for 50 mL tubes). The pellet is discarded. The supernatant is centrifuged at 100,000×g for 60 min. at 4° C. (Beckman L8-80M ultracentrifuge; spin at 37,500 rpm with rotor type 70 Ti for 50 mL tubes; 38,000 rpm with type 80Ti for 15 mL tubes; or 35,800 rpm with rotor type 45Ti). The supernantant is discarded and the pellet suspended in 3 to 4 mL of Tris buffer (50 mM TRIS—HCl, pH 7.4). The protein content is estimated by the Bradford or Lowry method. The volume of the membrane suspension is adjusted with the membrane buffer (50 mM Tris-HCl containing 0.1% BSA and 0.1 mM PMSF) to give 3.0 mg/mL (or as appropriate) of protein. The membranes are aliquoted and stored at −70. ° C.
C. Radioligand Binding Assay
In wells of a 96-well format microtiter plate, is added 90, 110 or 130 μL (to make up a final volume of 200 μL) of assay buffer containing 50 mM of Tris-HCl (pH 7.4), […], 1 mg % aprotinin, 1 mg % leupeptin, 2 mg % 1,10-phenanthroline, 10 mg % trypsin inhibitor, and 0.1 mM PMSF. The inhibitors are added on the day of the experiment. […]
For `COCCN1CCN(C(=O)c2ccc3n2Cc2ccccc2N(C(=O)c2ccc(-c4ccccc4C(F)(F)F)c(C)c2)C3)CC1` [Example 7, Methyl 2-{4-[(10-{[2-methyl-2′-trifluoromethyl-[1,1′-biphenyl]-4-yl]carbonyl}-10,11-dihydro-5H-pyrrolo[2,1-c][1,4]benzodiazepin-3-yl)carbonyl]piperazin-1-yl}ethyl ether], the inhibition at 0.1 µM came out at 16%.

Consider `COc1ccccc1-c1ccc(C(=O)N2Cc3ccc(C(=O)N(C)C[C@@H](O)CO)n3Cc3ccccc32)cc1C` (single isomer, unassigned) [Example 16], for which the inhibition at 0.1 µM amounted to 51%.

`COc1cc2c(cc1OC)N(C(=O)c1ccc(-c3ccccc3C(F)(F)F)c(C)c1)Cc1ccc(C(=O)N(CCO)CCO)n1C2` [Example 19, N,N-Bis(2-Hydroxyethyl)-7,8-dimethoxy-10-{[2-methyl-2′-trifluoromethyl-[1,1′-biphenyl]-4-yl]carbonyl}-10,11-dihydro-5H-pyrrolo[2,1-c][1,4]benzodiazepine-3-carboxamide]: the inhibition at 0.1 µM was 3%. Same read-out and setting: then `COc1cccc(-c2ccc(C(=O)N3Cc4ccc(C(=O)N5CCN(CCO)CC5)n4Cc4ccccc43)cc2C)c1` [Example 44, [4-(2-Hydroxyethyl)-1-piperazinyl]{10-[(3′-methoxy-2-methyl[1,1′-biphenyl]-4yl)carbonyl]-10,11-dihydro-5H-pyrrolo[2,1-c][1,4]benzodiazepin-3-yl}methanone], with 13%. Take `Cc1cc(C(=O)N2Cc3ccc(C(=O)NC(CO)(CO)CO)n3Cc3ccccc32)ccc1-c1ccccc1C(F)(F)F` [Example 3, 10-[(2-Methyl-2′-trifluoromethyl-[1,1′-biphenyl]-4-yl)carbonyl]-10,11-dihydro-5H-pyrrolo[2,1-c][1,4]benzodiazepine-3-carboxylic acid (2-hydroxy-1,1-bis-hydroxymethyl-ethyl)-amide]: the inhibition at 0.1 µM was 13%. Turning to `COc1cc2c(cc1OC)N(C(=O)c1ccc(-c3ccccc3C(F)(F)F)c(C)c1)Cc1ccc(C(=O)N(C)CC(O)CO)n1C2` (centres unmarked) [Example 18, N-(2,3-Dihydroxypropyl)-7,8-dimethoxy-N-methyl-10-{[2-methyl-2′-trifluoromethyl-[1,1′-biphenyl]-4-yl]carbonyl}-10,11-dihydro-5H-pyrrolo[2,1-c][1,4]benzodiazepine-3-carboxamide], the inhibition at 0.1 µM is -5%. Take `COc1ccccc1-c1ccc(C(=O)N2Cc3ccc(C(=O)N4CCN(CCO)CC4)n3Cc3ccccc32)cc1C` [Example 40, [4-(2-Hydroxyethyl)-1-piperazinyl]{10-[(2′-methoxy-2-methyl[1,1′-biphenyl]-4yl)carbonyl]-10,11-dihydro-5H-pyrrolo[2,1-c][1,4]benzodiazepin-3-yl}methanone]: the inhibition at 0.1 µM stood at 25%. Take `Cc1cc(C(=O)N2Cc3ccc(C(=O)N4CCN(CCO)CC4)n3Cc3ccccc32)ccc1-c1ccccc1C(F)(F)F` [Example 48, [4-(2-Hydroxyethyl)-1-piperazinyl](10-{[2-methyl-2′-(trifluoromethyl)[1,1′-biphenyl]-4-yl)carbonyl}-10,11-dihydro-5H-pyrrolo[2,1-c][1,4]benzodiazepin-3-yl)methanone]: the inhibition at 0.1 µM stood at 11%.

Still in this assay, the particulars now being: value printed in parentheses.
As to `Cc1ccc(-c2ccc(C(=O)N3Cc4ccc(C(=O)N(C)CC(O)CO)n4Cc4ccccc43)cc2)c2ccccc12` (centres unmarked) [Example 26, 10-{[4-(4-Methyl-naphthalen-1-yl)phenyl]carbonyl}-10,11-dihydro-5H-pyrrolo[2,1-c][1,4]benzodiazepine-3-carboxylic acid (2,3-dihydroxy-propyl)-N-methylamide], the IC50 worked out at 11.3 nM. Same read-out and setting: then `COc1ccccc1-c1ccc(C(=O)N2Cc3ccc(C(=O)N(C)C[C@H](O)[C@@H](O)[C@H](O)[C@H](O)CO)n3Cc3ccccc32)cc1C` [Example 17, 10-[(2′-Methoxy-2-methyl-[1,1′-biphenyl]-4-yl)carbonyl]-10,11-dihydro-5H-pyrrolo[2,1-c][1,4]benzodiazepine-3-carboxylic acid methyl-[(2S,3R,4R, 5R)-2,3,4,5,6-pentahydroxy-hexyl)-amide], with 144 nM; and `Cc1cc(C(=O)N2Cc3ccc(C(=O)N(C)C[C@H](O)[C@@H](O)[C@H](O)[C@H](O)CO)n3Cc3ccccc32)ccc1-c1ccccc1C(F)(F)F` [Example 4, 10-[(2-Methyl-2′-trifluoromethyl-[1,1′-biphenyl]-4-yl)carbonyl]-10,11-dihydro-5H-pyrrolo[2,1-c][1,4]benzodiazepine-3-carboxylic acid methyl-((2S,3R,4R,5R)-2,3,4,5,6-pentahydroxy-hexyl)-amide], with 617 nM. For the compound “{(2S)-1-[(10-{[2-Methoxy-2(trifluoromethyl)[1,1′-biphenyl]-4-yl]carbonyl}-10,11-dihydro-5H-pyrrolo[2,1-c][1,4]benzodiazepin-3-yl)carbonyl]pyrrolidin-2-yl}-methanol [Example 36]”, the IC50 was found to be 2070 nM. Same read-out and setting: then `COc1cc(C(=O)N2Cc3ccc(C(=O)N(C)CC(O)CN(C)C)n3Cc3ccccc32)ccc1-c1ccccc1C(F)(F)F` (centres unmarked) [Example 22, N-[(3-Dimethylamino)-2-hydroxy-propyl]-10-{[2-methoxy-2′-trifluoromethyl-[1,1′-biphenyl]-4-yl]carbonyl}-N-methyl-10,11-dihydro-5H-pyrrolo[2,1-c][1,4]benzodiazepine-3-carboxamide], with 1140 nM.

Take `COc1cc(-c2ccccc2C)c(Cl)cc1C(=O)N1Cc2ccc(C(=O)N3CCN(CCO)CC3)n2Cc2ccccc21` [Example 39, {10-[(6-Chloro-3-methoxy-2′-methyl[1,1′-biphenyl]-4-yl)carbonyl]-10,11-dihydro-5H-pyrrolo[2,1-c][1,4]benzodiazepin-3-yl}[4-(2-hydroxyethyl)-1-piperazinyl]methanone]: the IC50 amounted to 383 nM. On to `COCC(CN(C)C(=O)c1ccc2n1Cc1ccccc1N(C(=O)c1ccc(-c3ccccc3C(F)(F)F)c(C)c1)C2)OC` (centres unmarked) [Example 10, N-(2,3-Dimethoxypropyl)-N-methyl-10-{[2-methyl-2′-trifluoromethyl-[1,1′-biphenyl]-4-yl]carbonyl}-10,11-dihydro-5H-pyrrolo[2,1-c][1,4]benzodiazepine-3-carboxamide], for which the IC50 was 2220 nM. On the same count and under the same terms, the value for `COC[C@H](O)CN1CCN(C(=O)c2ccc3n2Cc2ccccc2N(C(=O)c2ccc(-c4ccccc4C(F)(F)F)c(C)c2)C3)CC1` [Example 8, (2R)-1-Methoxy-3-{4-[(10-{[2-methyl-2′-trifluoromethyl-[1,1′-biphenyl]-4-yl]carbonyl}-10,11-dihydro-5H-pyrrolo[2,1-c][1,4]benzodiazepin-3-yl)carbonyl]piperazin-1-yl}propan-2-ol] was 769 nM; that for `CC(=O)OCC(CN(C)C(=O)c1ccc2n1Cc1ccccc1N(C(=O)c1ccc(-c3ccccc3C(F)(F)F)c(C)c1)C2)OC(C)=O` (centres unmarked) [Example 13, 2-(Acetyloxy)-1-({methyl[(10-{[2-methyl-2′-trifluoromethyl-[1,1′-biphenyl]-4-yl]carbonyl}-10,11-dihydro-5H-pyrrolo[2,1-c][1,4]benzodiazepin-3-yl)carbonyl]amino}methyl)ethyl acetate] was 990 nM.

Broadly, the inhibition is the change of the read-out against control, counted positive when it falls. Usually IC50 stands for the concentration needed to halve the response being measured.

Values taken from patent US6900200B2, “Tricyclic hydroxy carboxamides and derivatives thereof tocolytic oxytocin receptor antagonists” (Wyeth, priority 2001, dated 2005).
